Laboratory results published in patent US9784752B2, “Venlafaxine assay” (Randox Laboratories, Limited, priority 2012, dated 2017).
Values after ≈ are worked out from the molar mass of the structure shown.

System: polyclonal antibody raised to Immunogen II
Experiment: Competitive biochip immunoassay (Evidence Investigator) with Hapten-1 HRP detecting agent
Assay type: binding, sheep
Details: for % Cross-reactivity: %CR calculated from IC50 ratio x 100; for IC50: concentration causing 50% displacement of signal, competition with Hapten-1 HRP for immobilised polyclonal antibody, 30 minutes at 30° C.
Method: A semi-automated Evidence Investigator analyser (Randox Laboratories Ltd., Crumlin, UK) was used as the platform for a biochip assay for the detection of venlafaxine and O-desmethylvenlafaxine. Immunogen II was administered to adult sheep on a monthly basis to provide target-specific polyclonal antisera. IgG was extracted from the antisera, and the purified antibody was immobilised on a biochip (9 mm×9 mm). The assay is based on competition for binding sites of a polyclonal antibody between Hapten-1HRP detecting agent (Example 10) and venlafaxine and O-desmethylvenlafaxine and potential cross-reactants. The antibody was immobilised and stabilised onto the biochip surface as previously described (Fitzgerald et al., 2005). Assay diluent (155 μL), calibrator/venlafaxine and O-desmethylvenlafaxine or potential cross-reactant (25 μL) followed by Hapten-1 HRP detecting agent (120 μL) were added to the appropriate biochip. The biochips were then incubated for 30 minutes at 30° C. on a thermoshaker set at 370 rpm. The biochips were then subjected to 2 quick wash cycles using the wash buffer provided, followed by 4×2 minute wash cycles. 250 μL of signal (1:1 luminol+peroxide, v/v) was then added to each biochip, and after 2 minutes the biochip carrier was imaged in the Evidence Investigator analyser. Calibration curves were generated and these were used to determine the sensitivity and specificity of the immunoassay for venlafaxine, O-desmethylvenlafaxine and potential cross-reactants.
Table 1, cross-reactivity being calculated according to the following formula: %CR=IC50,O-desmethylvenlafaxine/IC50,CR×100 where % CR is the percentage cross-reactivity, IC50, O-desmethylvenlafaxine is the concentration of O-desmethylvenlafaxine which causes 50% displacement of signal and IC50, CR is the concentration of venlafaxine or potential cross-reactant that causes 50% displacement of signal.

SMILES | % Cross-reactivity | IC50
CN(C)CC(c1ccc(O)cc1)C1(O)CCCCC1 (racemic) [O-Desmethylvenlafaxine, (RS)-1-[2-(dimethylamino)-1-(4-hydroxyphenyl)ethyl]cyclohexanol] | 48.4% | 0.03786 µg/mL (≈ 0.144 µM)
COc1cccc(C2(O)CCCCC2CN(C)C)c1 (centres unmarked) [Tramadol] | <5.7% | 
c1ccc(C2(N3CCCCC3)CCCCC2)cc1 [PCP] | <5.7% | >0.32 µg/mL
COc1ccc(C(CN(C)C)C2(O)CCCCC2)cc1 (racemic) [Venlafaxine, (RS)-1-[2-(dimethylamino)-1-(4-methoxyphenyl)ethyl]cyclohexanol] | 100% | 0.01831 µg/mL (≈ 0.066 µM)
CN(C)C[C@H]1CCCC[C@]1(O)c1cccc(O)c1 [O-Desmethyltramadol] | <5.7% | >0.32 µg/mL
COC(=O)C(c1ccccc1)C1CCCCN1 (centres unmarked) [Methylphenidate] | <5.7% | >0.32 µg/mL
CCOC(=O)C1(c2ccccc2)CCN(C)CC1 [Meperidine] | <5.7% | 
CNCC1CCCCC1(O)c1cccc(OC)c1 (centres unmarked) [N-Desmethyltramadol] | <5.7% | >0.32 µg/mL
